Test results reported in US12201610B2, “Compositions comprising aticaprant” (Janssen Pharmaceuticals, Inc., priority 2022, dated 2025).

Tests used:
Type in all cases: in vivo, human
[1] = Body weight by treatment group (Example 6)
Procedure: Treatment with aticaprant as described herein has several advantages over the treatments in the art. […] As used herein, the term “weight gain” refers to an increase in the weight of patient, relative to the weight of the patient before taking aticaprant or the weight of the patient that is assessed at the time of the initial administration of aticaprant. In certain embodiments, the patient may actually see a decrease in overall weight, relative to the weight of the patient before taking aticaprant.
At the lead-in baseline timepoint, the mean weight for subjects in the placebo group was 76.17 kg compared to 78.66 in the aticaprant group. After 6 weeks in the double-blind treatment phase, the mean weight in the placebo group was 75.75 kg compared to 78.57 kg in the aticaprant group. […] This is unexpected because other adjunctive treatments for MDD result in a mean weight increase. See, Thase M, et al. J Clin Psych. 2015: 76(9), 1224-1231; Thase, J Clin Psych. 2015, 76(9): 1232-1240; El Khalili, Int J Neuropsychopharmacol. 2010, 13, 917-932; Marcus, J. Clin. Psychopharmacol. […] Nashville, Tenn, ACNP, 2008; Earley, American College of Neuropsychopharmacology, 2007, Annual Meeting Abstracts (Boca Raton, Fla, Dec. 9-13, 2007). Nashville, TN, ACNP, 2007). See, Table 45.

subjects with MDD [2] = test: SIGH-A score (Example 6); conditions: 10 mg; Treatment Week 6; 59 subjects analyzed
Text: v. To investigate the effect of aticaprant on symptoms of anxiety using the HAM-A and on core symptoms of anxiety using the HAM-A6 subscale.
(§1) • (i) Depression: Montgomery-Åsberg Depression Rating Scale (MADRS), Clinical Global Impression-Severity (CGI-S), Symptoms of Major Depressive Disorder Scale (SMDDS), and Self-assessment of treatment experience (SATE) • (ii) Anhedonia: Snaith-Hamilton Pleasure Scale (SHAPS) • (iii) Anxiety: Structured Interview Guide for the Hamilton Anxiety scale (SIGH-A) and HAM-A6 • (iv) Effects on Cognition: The Cognitive and Physical Functioning Questionnaire (CPFQ) • (v) Safety assessments

subjects with MDD [3] = test: CGI-S total score (Example 6); conditions: 10 mg; 59 subjects analyzed; 'at Treatment' (week not given)
Text: CGI-S is a scale that rates the severity of the subject's illness at the time of assessment, relative to the clinician's past experience with subjects who have the same diagnosis and improvement with treatment. CGI-S provides an overall clinician-determined summary measure of severity of subject's illness that considers all available information, including knowledge of subject's history, psychosocial circumstances, symptoms, behavior, and impact of symptoms on subject's ability to function. CGI-S evaluates severity of psychopathology on scale of 0 to 7. Subject is assessed on severity of mental illness at time of rating according to: 0=not assessed; 1=normal (not at all ill); 2=borderline mentally ill; 3=mildly ill; 4=moderately ill; 5=markedly ill; 6=severely ill; 7=among most extremely ill patients.
iv. To investigate the effect of aticaprant on symptoms of depression using the Clinical Global Impression-Severity (CGI-S), the patient reported Symptoms of Major Depressive Disorder Scale (SMDDS) and the self-assessment of treatment experience (SATE). […]

subjects with MDD [4] = test: SMDDS total score (Example 6); conditions: 10 mg; Treatment Week 6; 59 subjects analyzed
Text: SMDDS is a subjective rating of the patient. The SMDDS is a 16-item PRO measure. Each item is rated by the subject according to a 5-point Likert scale. Subjects respond to each question using a rating scale between 0 (“Not at all” or “Never”) to 4 (“Extremely” or “Always”). The total score ranges […]. The SMDDS uses a 7-day recall period and verbal rating scales. Higher score indicates more severe depressive symptomatology.
iv. To investigate the effect of aticaprant on symptoms of depression using the Clinical Global Impression-Severity (CGI-S), the patient reported Symptoms of Major Depressive Disorder Scale (SMDDS) and the self-assessment of treatment experience (SATE).
as §1

Cc1cc(C)cc(C2CCCN2Cc2ccc(Oc3ccc(C(N)=O)cc3F)cc2)c1 (stereo not shown) [aticaprant, 3-fluoro-4-4-2-(3,5-dimethylphenyl)pyrrolidin-1-yl-methylphenoxybenzamide]
Mean weight, mean (SE) ([1]; Lead-in Baseline, n = 85): 78.66 (1.65) kg
Mean weight, mean (SE) ([1]; Screening, n = 85): 78.42 (1.65) kg
Mean weight, mean (SE) ([1]; Withdrawal Baseline, n = 85): 78.57 (1.71) kg
mean weight ([1]; after 6 weeks in the double-blind treatment phase): 78.57 kg
mean weight ([1]; lead-in baseline timepoint): 78.66 kg
Weight Absolute Change (Withdrawal—Lead-in) ([1]; n = 85): -0.09 kg
Weight Relative % Change ([1]; n = 85): −0.11%
Change from Treatment Baseline in SIGH-A score, Arithmetic Mean (SD) (subjects with MDD [2]): −5.85 ± 5.369 scores on a scale
Change from Treatment Baseline in CGI-S Total Score, Arithmetic Mean (SD) (subjects with MDD [3]): −0.92 ± 1.039 Scores on a scale
Change from Treatment Baseline in SMDDS Total Score, Arithmetic Mean (SD) (subjects with MDD [4]): −8.03 ± 9.957 Scores on a scale
